Data from patent US6461997B1, “Triazole sulfones having herbicidal activity” (Monsanto Technology LLC, priority 1999, dated 2002).

Columns and labels:
SOLNI (black nightshade) [1] = assay: Pre-plant incorporated (PPI) herbicidal activity, warm season; format: in vivo, Solanum nigrum; conditions: for PPI activity (GR80) SOLNI: pre-plant incorporated, GR80 = lowest tested rate with 80% or greater inhibition, approx. 14 days after treating, 30/21° C.
Method: (§1) In another set of tests, the pre-plant incorporated (PPI) activity of compounds of this invention was evaluated on the same species as for the pre-emergence tests described above. In the PPI tests the following procedure, designed to simulate PPI application, was used.
(§2) A pre-prepared topsoil mixture (described above) was placed in a pot and compacted to a depth of 1.0 to 1.25 cm from the top of the pot. Seeds of each of several monocotyledonous and dicotyledonous annual plant species were placed on top of the soil. A sufficient quantity of soil to cover the seeds and level fill the pot was weighed into an open container. A known amount of the test compound was dissolved or suspended in an organic solvent and applied by spraying to this cover soil. The cover soil was thoroughly mixed to distribute the test compound throughout the cover soil, and was then applied as a cover layer over the seeds. Untreated soil was used as a cover layer for control pots. After treatment the plants were placed in a greenhouse where they received 0.64 cm of overhead irrigation. All subsequent watering consisted of a light overhead mist and/or subirrigation as needed for germination and growth. Tables 9 and 10 below relate to warm season plant species which were placed after pre-emergence treatment in a greenhouse with a 30/21° C. day/night temperature regime. Tables 11 and 12 below relates to cool season plant species placed after pre-emergence treatment in a greenhouse or growth chamber with an 18/13° C. day/night temperature regime. Only the compounds of Examples 1, 6, 8, 11, 13 and 15-20 were included in PPI tests.
(§3) Approximately 14 days after planting and treating, the plants were observed and herbicidal efficacy recorded as percent inhibition by comparison with untreated plants.

[2] = tested on: SORHA (johnsongrass (seedling)); assay: Pre-emergence herbicidal activity, warm season; format: in vivo, Sorghum halepense; conditions: GR80 = lowest tested rate (300, 100, 30, 10 g/ha) with 80% or greater inhibition; approx. 14 days after treating; 30/21° C.
In short: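 Activity is expressed as the rate giving 80% inhibition, with 300, 100, 30 and 10 g/ha typically tested. An asterisk marks activity short of 80% at the top rate. Warm-season grasses were held at 30/21 °C; cool-season blackgrass and wild buckwheat at 18/13 °C; scoring at about 14 days.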

[3] = tested on: CIRAR (canada thistle (seedling)); assay: Pre-emergence herbicidal activity, warm season; format: in vivo, Cirsium arvense; conditions: GR80 = lowest tested rate (300, 100, 30, 10 g/ha) with 80% or greater inhibition; approx. 14 days after treating; 30/21° C.
In short: (§4)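 Seeds sown in sterilised fertilised topsoil received surface-applied compound in 50:50 acetone/water, typically at 300, 100, 30 and 10 g/ha, then greenhouse-grown at 30/21° C (warm-season species) or 18/13° C (cool-season species). Percent inhibition versus untreated plants was scored at about 14 days, giving GR80; an asterisk marks activity short of 80% at the top rate.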

[4] = tested on: AGSST (creeping bentgrass); assay: Pre-emergence herbicidal activity, cool season; format: in vivo, Agrostis stolonifera; conditions: GR80 = lowest tested rate (300, 100, 30, 10 g/ha) with 80% or greater inhibition; approx. 14 days after treating; 18/13° C.
In short: as §4

POLCO (wild buckwheat) = assay: Pre-emergence herbicidal activity, cool season; format: in vivo, Polygonum convolvulus; conditions: lowest tested rate with 80% or greater inhibition; rates 300, 100, 30, 10 g/ha; about 14 days
In short: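 Seeds were sown in sterilized, fertilized topsoil, covered, and the soil surface was sprayed with compound in 50:50 acetone/water at 300, 100, 30 and 10 g/ha. Pots were held at 30/21 °C day/night (PANMI, DIGSA) or 18/13 °C (ALOMY, POLCO). GR80 came from percent inhibition versus untreated plants at about 14 days.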

SETVI (green foxtail) = assay: Pre-plant incorporated (PPI) herbicidal activity, cool season; format: in vivo, Setaria viridis; conditions: for PPI activity GR80, SETVI: pre-plant incorporated, lowest tested rate with 80% or greater inhibition, about 14 days
Method: as §1, §2, §3

[5] = tested on: VERPE (creeping speedwell); assay: Pre-emergence herbicidal activity, cool season; format: in vivo, Veronica persicaria; conditions: lowest tested rate with 80% or greater inhibition; rates 300, 100, 30, 10 g/ha; about 14 days
In short: as §4

[6] = tested on: BRAPP (broadleaf signalgrass); assay: Pre-plant incorporated (PPI) herbicidal activity, warm season; format: in vivo, Brachiaria platyphylla; conditions: for PPI activity GR80, BRAPP: pre-plant incorporated, lowest tested rate with 80% or greater inhibition, about 14 days
Method: as §1, §2, §3

POAAN (annual bluegrass) = assay: Pre-plant incorporated (PPI) herbicidal activity, cool season; format: in vivo, Poa annua; conditions: weed, PPI application
Method: as §1, §2, §3

SOLNI (black nightshade) [7] = assay: Pre-emergence herbicidal activity, warm season; format: in vivo, Solanum nigrum; conditions: GR80 = lowest tested rate (300, 100, 30, 10 g/ha) with 80% or greater inhibition; approx. 14 days after treating; 30/21° C.
In short: as §4

[8] = weed, PPI application, 100 g/ha
[9] = weed, PPI application, 300 g/ha
[10] = weed, PPI application, 900 g/ha

| Compound | PPI activity (GR80) SOLNI (SOLNI (black nightshade) [1]) [g/ha] | Pre-emergence activity (GR80) SORHA [2] [g/ha] | Pre-emergence activity (GR80) AGSST [4] [g/ha] | Pre-emergence activity GR80, POLCO (POLCO (wild buckwheat)) | PPI activity GR80, SETVI (SETVI (green foxtail)) [g/ha] | Pre-emergence activity GR80, VERPE [5] [g/ha] | PPI activity GR80, BRAPP [6] [g/ha] | Percent inhibition SOLNI (SOLNI (black nightshade) [1]; PPI application, 10 g/ha) [%] | Percent inhibition SOLNI (SOLNI (black nightshade) [1]; PPI application, 100 g/ha) [%] | Percent inhibition SOLNI (SOLNI (black nightshade) [1]; PPI application, 300 g/ha) [%] | Percent inhibition SOLNI (SOLNI (black nightshade) [1]; PPI application, 900 g/ha) [%] | Percent inhibition POAAN (POAAN (annual bluegrass); 10 g/ha) [%] | Percent inhibition POAAN (POAAN (annual bluegrass); 30 g/ha) [%] | Percent inhibition POAAN (POAAN (annual bluegrass); 100 g/ha) [%] | Percent inhibition POAAN (POAAN (annual bluegrass); 300 g/ha) [%] | Percent inhibition POAAN (POAAN (annual bluegrass); 900 g/ha) [%] | Pre-emergence activity (GR80) SOLNI (SOLNI (black nightshade) [7]) [g/ha] | Percent inhibition SETVI (SETVI (green foxtail); weed, PPI application, 10 g/ha) [%] | Percent inhibition SETVI (SETVI (green foxtail); weed, PPI application, 30 g/ha) [%] | Percent inhibition SETVI (SETVI (green foxtail); [8]) [%] | also measured |
| --- | --- | --- | --- | --- | --- | --- | --- | --- | --- | --- | --- | --- | --- | --- | --- | --- | --- | --- | --- | --- | --- |
| CCN(CC)C(=O)n1cnc(S(=O)(=O)C(F)(F)C(=O)c2ccccc2)n1 [Example 6] | 100 | 100 | 100 | 300 g/ha | 300 | 300 | 300 |  |  |  |  |  |  |  |  |  |  |  |  |  | Pre-emergence activity (GR80) CIRAR [3]: 300 g/ha |
| CCN(CC)C(=O)n1cnc(S(=O)(=O)C(F)(F)SCCOC)n1 [Example 13] | 100 |  | 100 | [empty] | 100 | 300 | 100 | 0 | 60 | 95 | 100 | 0 | 50 | 90 | 100 | 95 | 300 | 30 | 95 | 100 | Percent inhibition SOLNI (SOLNI (black nightshade) [1]; PPI application, 30 g/ha): 30%; Percent inhibition SETVI (SETVI (green foxtail); [9]): 100%; Percent inhibition SETVI (SETVI (green foxtail); [10]): 100%; Percent inhibition BRAPP ([6]; PPI application, 10 g/ha): 40%; Percent inhibition BRAPP ([6]; PPI application, 30 g/ha): 80%; Percent inhibition BRAPP ([6]; PPI application, 100 g/ha): 95%; Percent inhibition BRAPP ([6]; PPI application, 300 g/ha): 99%; Percent inhibition BRAPP ([6]; PPI application, 900 g/ha): 100% |
| CCN(CC)C(=O)n1cnc(S(=O)(=O)C(F)(F)C(F)F)n1 [Example 16] | 30 | 100 | 30 | [empty] | 10 | 100 | 10 | 100 | 100 | 95 | 100 | 20 | 50 | 65 | 100 | 100 | 100 | 100 | 80 | 95 | Percent inhibition SETVI (SETVI (green foxtail); [9]): 100%; Percent inhibition SETVI (SETVI (green foxtail); [10]): 100%; Percent inhibition BRAPP ([6]; PPI application, 10 g/ha): 20%; Percent inhibition BRAPP ([6]; PPI application, 30 g/ha): 60%; Percent inhibition BRAPP ([6]; PPI application, 100 g/ha): 100%; Percent inhibition BRAPP ([6]; PPI application, 300 g/ha): 100%; Percent inhibition BRAPP ([6]; PPI application, 900 g/ha): 100% |
| C=CCC(F)(F)S(=O)(=O)c1ncn(C(=O)N(CC)CC)n1 [Example 17, 1-(N,N-diethylcarbamoyl)-3-[(1,1-difluoro-3-butenyl)sulfonyl]-1,2,4-triazole] | 30 | 100 | 100 | 100 g/ha | 30 | 100 | 100 |  |  |  |  |  |  |  |  |  | 100 |  |  |  | inhibition at 10 g/ha (SOLNI (black nightshade) [1]; Solanum nigrum, PPI application, 10 g/ha, read-out: Percent inhibition SOLNI): 0%; inhibition at 30 g/ha (SOLNI (black nightshade) [1]; Solanum nigrum, PPI application, 30 g/ha, read-out: Percent inhibition SOLNI): 0%; inhibition at 100 g/ha (SOLNI (black nightshade) [1]; Solanum nigrum, PPI application, 100 g/ha, read-out: Percent inhibition SOLNI): 80%; inhibition at 300 g/ha (SOLNI (black nightshade) [1]; Solanum nigrum, PPI application, 300 g/ha, read-out: Percent inhibition SOLNI): 70%; inhibition at 900 g/ha (SOLNI (black nightshade) [1]; Solanum nigrum, PPI application, 900 g/ha, read-out: Percent inhibition SOLNI): 100%; inhibition at 10 g/ha (POAAN (annual bluegrass); Poa annua, 10 g/ha, read-out: Percent inhibition POAAN): 10%; inhibition at 30 g/ha (POAAN (annual bluegrass); Poa annua, 30 g/ha, read-out: Percent inhibition POAAN): 60%; inhibition at 100 g/ha (POAAN (annual bluegrass); Poa annua, 100 g/ha, read-out: Percent inhibition POAAN): 70%; inhibition at 300 g/ha (POAAN (annual bluegrass); Poa annua, 300 g/ha, read-out: Percent inhibition POAAN): 95%; inhibition at 900 g/ha (POAAN (annual bluegrass); Poa annua, 900 g/ha, read-out: Percent inhibition POAAN): 100%; inhibition at 10 g/ha (SETVI (green foxtail); Setaria viridis, weed, PPI application, 10 g/ha, read-out: Percent inhibition SETVI): 40%; inhibition at 30 g/ha (SETVI (green foxtail); Setaria viridis, weed, PPI application, 30 g/ha, read-out: Percent inhibition SETVI): 70%; inhibition at 100 g/ha (SETVI (green foxtail); Setaria viridis, weed, PPI application, 100 g/ha, read-out: Percent inhibition SETVI): 70%; inhibition at 300 g/ha (SETVI (green foxtail); Setaria viridis, weed, PPI application, 300 g/ha, read-out: Percent inhibition SETVI): 100%; inhibition at 900 g/ha (SETVI (green foxtail); Setaria viridis, weed, PPI application, 900 g/ha, read-out: Percent inhibition SETVI): 100%; inhibition at 10 g/ha ([6]; Urochloa platyphylla, PPI application, 10 g/ha, read-out: Percent inhibition BRAPP): 0%; inhibition at 30 g/ha ([6]; Urochloa platyphylla, PPI application, 30 g/ha, read-out: Percent inhibition BRAPP): 0%; inhibition at 100 g/ha ([6]; Urochloa platyphylla, PPI application, 100 g/ha, read-out: Percent inhibition BRAPP): 50%; inhibition at 300 g/ha ([6]; Urochloa platyphylla, PPI application, 300 g/ha, read-out: Percent inhibition BRAPP): 100%; inhibition at 900 g/ha ([6]; Urochloa platyphylla, PPI application, 900 g/ha, read-out: Percent inhibition BRAPP): 100% |
